Test results as given in US20040121965A1, “Method of treating resistant tumors” (Wyeth Holdings Corporation, priority 2002, published 2004).

Tests used:
[1] = tested on: KB-3-1; test: Cell survival assay (SRB), KB-3-1; assay type: cell-based, human; details: Homo sapiens, KB 3-1, KB-3-1 cells (paclitaxel-sensitive parent); read-out: In vitro IC50 (nM) KB-3-1
How it was run: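 Growth inhibition (IC50) is derived from SRB-measured protein content after a 3-day, duplicate exposure to serially diluted compound.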

[2] = tested on: KB-V1 (MDR1++); test: Cell survival assay (SRB), KB-V1 (MDR1++); details: for IC50: Homo sapiens, read-out: In vitro IC50 (nM) KBV1
[3] = tested on: KB-8-5 (MDR1+); test: Cell survival assay (SRB), KB-8-5 (MDR1+); details: for IC50: Homo sapiens, MDR1, read-out: In vitro IC50 (nM) KB85

| Compound | IC50 [1] [nM] | Ratio KBV1/KB [2] | IC50 [2] [nM] | Ratio KB85/KB [3] | IC50 [3] [nM] |
| --- | --- | --- | --- | --- | --- |
| CCCC/C(=C\[C@@H](NC(=O)[C@@H](NC(=O)[C@@H](NC)C(C)(C)c1ccccc1)C(C)(C)C)C(C)C)C(=O)O [Example 77, (E,4S)-2-Butyl-4-[((2S)-3,3-dimethyl-2-{[(2S)-3-methyl-2-(methylamino)-3-phenylbutanoyl]amino}butanoyl)amino]-5-methyl-2-hexenoic Acid] | 575 | 5.2 | ≥ 3000 | 3.0 | 1740 |
| CCOC(=O)/C(C)=C/[C@H](C(C)C)N(C)C(=O)[C@@H](NC(=O)[C@@H](NC)C(C)(C)c1ccccc1)C(C)(C)SC [Example 79, Ethyl (E,4S)-2,5-dimethyl-4-{methyl[(2R)-3-methyl-2-{[(2S)-3-methyl-2-(methylamino)-3-phenylbutanoyl]amino}-3-(methylsulfanyl)butanoyl]amino}-2-hexenoate] | 449 | 5.4 | 2440 | 3.2 | 1420 |
| CN[C@H](C(=O)N[C@H](C(=O)N(C)[C@H](/C=C(\C)C(=O)O)C(C)C)C(C)(C)S(C)(=O)=O)C(C)(C)c1ccccc1 [Example 81, N,β,β-trimethyl-L-phenylalanyl-N^1-[(1S,2E)-3-carboxy-1-isopropyl-2-butenyl]-N^1-methyl-3-(methylsulfonyl)-L-valinamide] | 178 | 16.9 | ≥ 3000 | 3.3 | 589 |
| CN[C@H](C(=O)N[C@H](C(=O)N(C)[C@H](/C=C(\C)C(=O)O)C(C)C)C(C)(C)SCc1ccc(OC)cc1)C(C)(C)c1ccccc1 [Example 82, N,β,β-trimethyl-L-phenylalanyl-N^1-[(1S,2E)-3-carboxy-1-isopropyl-2-butenyl]-3-[(4-methoxybenzyl)sulfanyl]-N^1-methyl-L-valinamide] | 59 | 40.1 | 2360 | 1.7 | 100 |
| CN[C@H](C(=O)N[C@H](C(=O)N(C)[C@H](/C=C(\C)C(=O)O)C(C)C)C(C)(C)SCc1ccc(OC)cc1)C(C)(C)c1ccc(OC)cc1 [Example 83, N,O,β,β-tetramethyl-L-tyrosyl-N^1-[(1S,2E)-3-carboxy-1-isopropyl-2-butenyl]-3-[(4-methoxybenzyl)sulfanyl]-N^1-methyl-L-valinamide] | 15.8 | 132.2 | 2090 | 2.8 | 43.7 |
| CN[C@H](C(=O)N[C@H](C(=O)N(C)[C@H](/C=C(\C)C(=O)O)C(C)C)C(C)(C)SC)C(C)(C)c1ccc(OC)cc1 [Example 84, N,O,β,β-tetramethyl-L-tyrosyl-N^1-[(1S,2E)-3-carboxy-1-isopropyl-2-butenyl]-N^1-methyl-3-(methylsulfanyl)-L-valinamide] | 1.6 | 188.7 | 302 | 3.2 | 5.1 |
| CN[C@H](C(=O)N[C@H](C(=O)N(C)[C@H](/C=C(\C)C(=O)O)C(C)C)[C@H](C)O)C(C)(C)c1ccccc1 [Example 86, N,β,β-trimethyl-L-phenylalanyl-N^1-[(1S,2E)-3-carboxy-1-isopropyl-2-butenyl]-N^1-methyl-L-allothreoninamide] | 311 | 9.7 | ≥ 3000 | 2.2 | 669 |
| CN[C@H](C(=O)N[C@H](C(=O)N(C)[C@H](/C=C(\C)C(=O)O)C(C)C)C(C)(C)c1ccc(OC)cc1)C(C)(C)c1ccccc1 [Example 87, N,β,β-trimethyl-L-phenylalanyl-N-[(1S,2E)-3-carboxy-1-isopropyl-2-butenyl]-N,O,β,β-tetramethyl-L-tyrosinamide] | 27.2 | 72.4 | 1970 | 2.1 | 56.3 |
| CN[C@H](C(=O)N[C@H](C(=O)N(C)[C@H](/C=C(\C)C(=O)O)C(C)C)[C@H](C)OC)C(C)(C)c1ccccc1 [Example 88, N,β,β-trimethyl-L-phenylalanyl-N^1-[(1S,2E)-3-carboxy-1-isopropyl-2-butenyl]-N^1,O-dimethyl-L-allothreoninamide] | 871 | 3.4 | ≥ 3000 | 2.0 | 1740 |
| CN[C@H](C(=O)N[C@@H](CCc1ccccc1)C(=O)N(C)[C@H](/C=C(\C)C(=O)O)C(C)C)C(C)(C)c1ccccc1 [Example 89, (E ,4S)-2,5-Dimethyl-4-[methyl((2S)-2-{[(2S)-3-methyl-2-(methylamino)-3-phenylbutanoyl]amino}4-phenylbutanoyl)amino]-2-hexenoic Acid] | 180 | 16.6 | ≥ 3000 | 1.5 | 274 |
| CN[C@H](C(=O)N[C@H](C(=O)N(C)[C@H](/C=C(\C)C(=O)O)C(C)C)C(C)(C)c1ccc(C(=O)c2ccccc2)cc1)C(C)(C)c1ccccc1 [Example 90, N,β,β-trimethyl-L-phenylalanyl-4-benzoyl-N-[(1S,2E)-3-carboxy-1-isopropyl-2-butenyl]-N,β,β-trimethyl-L-phenylalaninamide] | 22.4 | 133.9 | ≥ 3000 | 4.3 | 96.9 |
| CN[C@H](C(=O)N[C@H](C(=O)N(C)[C@H](/C=C(\C)C(=O)O)C(C)C)C(C)(C)C)C(C)(C)c1ccc(C(=O)c2ccccc2)cc1 [Example 91, 4-benzoyl-N,β,β-trimethyl-L-phenylalanyl-N^1-[(1S,2E)-3-carboxy-1-isopropylbut-2-enyl]-N^1,3-dimethyl-L-valinamide] | 1.7 | 308.7 | 525 | 4.0 | 6.8 |
| CN[C@H](C(=O)N[C@H](C(=O)N(C)[C@H](/C=C(\C)C(=O)O)CC(C)C)C(C)(C)C)C(C)(C)c1ccccc1 [Example 92, 4-{[3,3-Dimethyl-2-(3-methyl-2-methylamino-3-phenyl-butyrylamino)-butyryl]-methyl-amino}-2,6-dimethyl-hept-2-enoic Acid] | 126 | 23.9 | ≥ 3000 | 2.1 | 264 |
| CN[C@H](C(=O)N[C@H](C(=O)N[C@H](/C=C(\C)C(=O)O)CC(C)C)C(C)(C)C)C(C)(C)c1ccccc1.O=C(O)C(F)(F)F [Example 93, N,β,β-trimethyl-L-phenylalanyl-N^1-[(1S,2E)-3-carboxy-1-isobutylbut-2-enyl]-3-methyl-L-valinamide Trifluoroacetic Acid] | 85.2 | 35.2 | ≥ 3000 | 4.0 | 339 |
| CCN(C(=O)[C@@H](NC(=O)[C@@H](NC)C(C)(C)c1ccccc1)C(C)(C)C)[C@H](/C=C(\C)C(=O)O)C(C)C.O=C(O)C(F)(F)F [Example 94, N,β,β-trimethyl-L-phenylalanyl-N^1-[(1S,2E)-3-carboxy-1-isopropylbut-2-enyl]-N^1-ethyl-3-methyl-L-valinamide Trifluoroacetic Acid] | 109 | 27.5 | ≥ 3000 | 1.8 | 197 |
| CN[C@H](C(=O)N[C@@H](CC(C)C)C(=O)N(C)[C@H](/C=C(\C)C(=O)O)C(C)C)C(C)(C)c1ccccc1.O=C(O)C(F)(F)F [Example 96, N,β,β-trimethyl-L-phenylalanyl-N^1-[(1S,2E)-3-carboxy-1-isopropylbut-2-enyl]-N^1-methyl-L-leucinamide Trifluoroacetic Acid] | 19 | 76.1 | 1440 | 1.6 | 30 |
| CCC[C@H](NC(=O)[C@@H](NC)C(C)(C)c1ccccc1)C(=O)N(C)[C@H](/C=C(\C)C(=O)O)C(C)C.O=C(O)C(F)(F)F [Example 97, N,β,β-trimethyl-L-phenylalanyl-N^1-[(1S,2E)-3-carboxy-1-isopropylbut-2-enyl]-N^1-methyl-L-norvalinamide Trifluoroacetic Acid] | 15 | 38.3 | 575 | 1.3 | 19 |
| CNC(C(=O)NC(C(=O)N(C)C(C=C(C)C(=O)O)C(C)C)C(C)(C)C)C(C)c1ccccc1.O=C(O)C(F)(F)F (stereo not shown) [Example 100, 4-{[3,3-Dimethyl-2-(2-methylamino-3-phenyl-butyrylamino)-butyryl]-methyl-amino}-2,5-dimethyl-hex-2-enoic Acid Trifluoroacetic Acid] | 114 | 26.2 | ≥ 3000 | 1.7 | 197 |
| CN[C@H](C(=O)N[C@H](C(=O)N[C@H](/C=C(\C)C(=O)O)C(C)C)C(C)(C)C)C(C)(C)c1ccccc1.O=C(O)C(F)(F)F [Example 101, N,β,β-trimethyl-L-phenylalanyl-N^1-[(1S,2E)-3-carboxy-1-isopropylbut-2-enyl]-3-methyl-L-valinamide Trifluoroacetic Acid] | 43.1 | 69.6 | ≥ 3000 | 3.2 | 139 |
| CN[C@H](C(=O)N[C@H](C(=O)N[C@H](/C=C(\C)C(=O)O)C(C)C)C(C)C)C(C)(C)c1ccccc1.O=C(O)C(F)(F)F [Example 102, N,β,β-trimethyl-L-phenylalanyl-N^1-[(1S,2E)-3-carboxy-1-isopropylbut-2-enyl]-L-valinamide Trifluoroacetic Acid] | 371 | 8.1 | ≥ 3000 | 1.7 | 618 |
